Measurements as given in patent US8563683B2, “Synthetic lung surfactant and use thereof” (University of Rochester, priority 2006, dated 2013).
pKd: −log10 of the molar value.

Key:
DEPN-8 = test: Plasmon resonance (Biacore 3000) binding of lipid liposomes to peptide film; conditions: DEPN-8 liposomes over peptide film on CM5 chip, 37° C.; read-out: dissociation constant KD (koff/kon)
Procedure: (§1) Super Mini-B peptide was also characterized in terms of its binding (association) affinity for lipids by plasmon resonance using a Biacore 3000 system (Biacore, Uppsala, Sweden). Peptide self-films were chemically-linked using a CM5 sensor chip (BR-1000-14, research grade), and lipid liposomes in running buffer were flowed over the chip to determine the degree of specific lipid association with the peptide film at 37° C. The off and on rates and dissociation constant KD (KD=koff/kon) were calculated by BIAevaluation Software Version 4.1.

[1] = target: dipalmitoyl phosphatidylcholine (DPPC); test: as above; conditions: DPPC liposomes over peptide film on CM5 chip, 37° C.; read-out: dissociation constant KD (koff/kon)
Procedure: as §1

[2] = Surface activity on pulsating bubble surfactometer (minimum surface tension); type: physicochemical; conditions: 37° C., 20 cycles/min, 50% area compression, lipid […] except SLM (1.0 mg/ml)
Procedure: Surfactant compositions were formulated using various molar or wt ratios of lipid analogs or naturally occurring lipids, with the addition of native lung surface proteins or synthetic peptides, and optionally a saturated free fatty acid in the indicated wt percentage based on the total weight of the intermediate lipid formulation. Surfactant compositions were dispersed in 0.15M NaCl+2 mM CaCl2 and placed in a sample chamber mounted on the pulsator unit of a bubble surfactometer. All surfactants were studied at a lipid concentration of 2.5 mg/ml, and in addition a mixture of synthetic ester-linked phospholipids (SLM) plus Super Mini-B was studied at a lipid concentration of 1 mg/ml.
A tiny air bubble was formed and pulsated between maximum and minimum radii of 0.55 and 0.4 mm, respectively, while the pressure drop across the air-water interface of the bubble was measured with a precision transducer. Surface tension was calculated from the measured pressure drop at minimum radius (0.4 mm) from the Laplace equation (Enhorning, “Pulsating Bubble Technique for Evaluation of Pulmonary Surfactant,” J Appl Physiol 43:198-203 (1977); Hall et al., “Approximations in the Measurement of Surface Tension with the Oscillating Bubble Surfactometer,” J Appl Physiol 75:468-477 (1993), each of which is hereby incorporated by reference in its entirety).
The high surface activity of synthetic lung surfactants containing DEPN-8 or 9:1 DEPN-8:PG-A or 9:1 DEPN-8:PG-B plus 1.5% by weight of Mini-B, FK20, or F4K is shown in Table 1. Activity is also shown for mixtures containing two glycerophospholipids found in endogenous lung surfactant, 8:2 (molar ratio) dipalmitoyl phosphatidylcholine (DPPC) and palmitoyl-oleoyl phosphatidylglycerol (POPG), with or without added synthetic peptides. Also studied is a synthetic lipid mixture containing 16:10:6:1:2 (by weight) DPPC, palmitoyl-oleoyl-phosphatidylcholine (POPC), POPG, palmitoyl-oleoyl-phosphatidylethanolamine (POPE), and cholesterol combined with Super Mini B (SEQ ID NO: 13). The surface activity of DEPN-8+1.5% bovine SP-B/C (mixture of bovine surfactant proteins B/C purified on a column from extracted calf lung surfactant) is additionally shown as a positive control. As described in the preceding paragraph, the surface activity measurements in Table 1 were obtained with a pulsating bubble surfactometer in vitro. Measurements of surface activity on this instrument reflect the combined effects of adsorption and dynamic film compression at a cycling rate (20 cycles/min), temperature (37° C.), and area compression (50% compression from maximum to minimum area) relevant for the mammalian lungs in vivo (Notter, Lung Surfactants: Basic Science and Clinical Applications, Marcel Dekker, Inc, New York (2000); Enhorning, “Pulsating Bubble Technique for Evaluation of Pulmonary Surfactant,” J Appl Physiol 43:198-203 (1977); Notter et al., “Pulmonary Surfactant: Physical Chemistry, Physiology and Replacement,” Rev Chem Eng 13:1-118 (1997), each of which is hereby incorporated by reference in its entirety). Prior publications have shown that assessments of surface activity on the bubble apparatus correlate well with the physiological activity of exogenous surfactants in animal lungs (see Notter, Lung Surfactants: Basic Science and Clinical Applications, Marcel Dekker, Inc, New York (2000); Notter et al., “Pulmonary Surfactant: Physical Chemistry, Physiology and Replacement,” Rev Chem Eng 13:1-118 (1997); Holm et al., “Effects of Hemoglobin and Cell Membrane Lipids on Pulmonary Surfactant Activity,” J Appl Physiol 63:1434-1442 (1987), each of which is hereby incorporated by reference in its entirety). […] The activity of these surfactant formulations of the present invention also approached or exceeded the positive control DEPN-8+1.5% bovine SP-B/C. […]

| Compound | pKd (DEPN-8) | pKd [1] | Surface tension at minimum bubble radius at time 0.5 min ([2]; 0.5 min pulsation) | Surface tension at minimum bubble radius at time 1 min ([2]; 1 min pulsation) | Surface tension at minimum bubble radius at time 2 min ([2]; 2 min pulsation) | Surface tension at minimum bubble radius at time 5 min ([2]; 5 min pulsation) | Surface tension at minimum bubble radius at time 10 min ([2]; 10 min pulsation) | Surface tension at minimum bubble radius at time 15 min ([2]; 15 min pulsation) | Surface tension at minimum bubble radius at time […] ([2]; […] pulsation) |
| --- | --- | --- | --- | --- | --- | --- | --- | --- | --- |
| FPIPLPYCWLCRALIKRIQAMIPKGGRMLPQLVCRLVLRCS [Super Mini-B] | 7.20 | 6.11 |  |  |  |  |  |  |  |
| CCCCCCCCCCCCCCCCOCC(COP(=O)(O)CCC[N+](C)(C)C)OCCCCCCCCCCCCCCCC (racemic) [DEPN-8, [(±)-trimethyl(3-phosphonopropyl)ammonium, mono(2,3-bis(hexadecyloxy)propyl ester]] |  |  | 27 ± 2 mN/m | 21 ± 2 mN/m | 14 ± 2 mN/m | 6 ± 1 mN/m | 2 ± 1 mN/m | <1 mN/m | 32 ± 2 mN/m |
